{"source": "paper PMC2824011", "about": "(Analytical biochemistry, 2009)", "key": {"[1]": {"molecular_target": "T1, Golgi α-mannosidase II (dGMII) (Drosophila melanogaster, UniProt Q24451)", "T1 sequence (Q24451 76-1108)": "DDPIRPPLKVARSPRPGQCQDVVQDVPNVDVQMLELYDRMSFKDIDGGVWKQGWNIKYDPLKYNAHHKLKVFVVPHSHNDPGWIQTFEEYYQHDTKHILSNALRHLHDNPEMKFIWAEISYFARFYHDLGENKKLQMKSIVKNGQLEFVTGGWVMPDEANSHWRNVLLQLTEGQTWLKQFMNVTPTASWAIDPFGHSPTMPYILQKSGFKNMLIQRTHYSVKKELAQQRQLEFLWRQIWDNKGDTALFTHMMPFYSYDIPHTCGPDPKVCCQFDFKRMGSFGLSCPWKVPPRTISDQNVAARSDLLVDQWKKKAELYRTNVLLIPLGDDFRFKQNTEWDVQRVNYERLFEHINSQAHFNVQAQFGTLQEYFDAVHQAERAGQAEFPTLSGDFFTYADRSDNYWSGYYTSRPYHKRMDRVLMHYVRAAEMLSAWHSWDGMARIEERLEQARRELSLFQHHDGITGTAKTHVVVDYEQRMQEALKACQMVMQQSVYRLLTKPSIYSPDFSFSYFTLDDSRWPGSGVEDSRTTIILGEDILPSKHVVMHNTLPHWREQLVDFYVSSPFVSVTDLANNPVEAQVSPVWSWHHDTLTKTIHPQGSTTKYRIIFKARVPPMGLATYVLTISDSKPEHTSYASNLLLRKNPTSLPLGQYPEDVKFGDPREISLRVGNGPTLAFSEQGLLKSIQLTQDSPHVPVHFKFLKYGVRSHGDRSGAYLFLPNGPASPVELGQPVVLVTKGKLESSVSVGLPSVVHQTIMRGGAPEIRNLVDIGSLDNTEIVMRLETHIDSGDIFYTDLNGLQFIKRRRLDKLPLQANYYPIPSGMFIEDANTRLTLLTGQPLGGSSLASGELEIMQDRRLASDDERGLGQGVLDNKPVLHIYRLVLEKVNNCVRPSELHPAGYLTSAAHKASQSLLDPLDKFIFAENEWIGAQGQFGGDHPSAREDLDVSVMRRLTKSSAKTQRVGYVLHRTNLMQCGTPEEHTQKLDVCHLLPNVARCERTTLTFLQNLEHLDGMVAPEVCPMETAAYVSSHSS", "assay": "continuous fluorometric enzyme assay with Res-Man substrate, pH […]", "format": "biochemical"}, "[2]": {"molecular_target": "T2, human lysosomal mannosidase (HLM) (Homo sapiens, UniProt O00754)", "T2 sequence (O00754 50-1011)": "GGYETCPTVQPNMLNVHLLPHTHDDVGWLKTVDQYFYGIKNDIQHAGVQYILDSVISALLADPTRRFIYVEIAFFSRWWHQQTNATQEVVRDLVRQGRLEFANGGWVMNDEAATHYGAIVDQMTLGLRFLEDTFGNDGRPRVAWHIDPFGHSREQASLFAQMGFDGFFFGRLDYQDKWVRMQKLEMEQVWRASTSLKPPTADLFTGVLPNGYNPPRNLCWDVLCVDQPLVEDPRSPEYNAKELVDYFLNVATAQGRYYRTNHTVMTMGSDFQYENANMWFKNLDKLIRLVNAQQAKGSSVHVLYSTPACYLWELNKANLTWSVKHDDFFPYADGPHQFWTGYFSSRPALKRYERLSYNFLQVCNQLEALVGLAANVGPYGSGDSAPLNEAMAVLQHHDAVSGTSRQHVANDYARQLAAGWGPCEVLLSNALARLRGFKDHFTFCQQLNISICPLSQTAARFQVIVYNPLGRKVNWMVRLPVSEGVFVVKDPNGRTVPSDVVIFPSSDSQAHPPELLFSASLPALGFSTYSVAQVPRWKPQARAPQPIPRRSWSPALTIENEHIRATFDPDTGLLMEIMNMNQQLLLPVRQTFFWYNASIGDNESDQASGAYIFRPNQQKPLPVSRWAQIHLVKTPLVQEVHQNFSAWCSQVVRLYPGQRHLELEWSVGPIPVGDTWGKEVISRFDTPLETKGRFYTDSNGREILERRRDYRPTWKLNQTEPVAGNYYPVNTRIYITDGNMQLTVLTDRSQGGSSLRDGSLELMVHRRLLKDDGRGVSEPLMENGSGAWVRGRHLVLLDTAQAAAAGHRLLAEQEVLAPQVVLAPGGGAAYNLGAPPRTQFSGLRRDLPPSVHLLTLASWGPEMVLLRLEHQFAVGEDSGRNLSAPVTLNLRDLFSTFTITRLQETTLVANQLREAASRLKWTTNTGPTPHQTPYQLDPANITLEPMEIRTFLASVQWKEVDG", "assay": "continuous fluorometric turnover assay of purified enzyme, pH […]", "format": "biochemical"}}, "note": "pKi: −log10 of the molar value.", "data": [{"smiles": "O[C@H]1[C@H]2[C@H](O)CCCN2C[C@H]1O", "note": "[swainsonine]", "values": [{"measurement": "pKi", "setting": "[1]", "result": 7.35}]}, {"smiles": "O=c1ccc2nc3ccc(O[C@H]4O[C@H](CO)[C@@H](O)[C@H](O)[C@@H]4O)cc3oc-2c1", "note": "[Res-Man, resorufin α-D-mannopyranoside]", "values": [{"measurement": "continuous fluorometric turnover assay of purified enzyme, pH 6.0", "setting": "[2]", "result": "recombinant human lysosomal mannosidase (HLM) (◊) using the substrate resorufin-α-D-mannopyranoside (Res-Man)"}]}]}
